Where two headings read alike, the source gives them in different places.
Tests used:
K. pneumoniae = conditions: intravenous; PET 120 minutes post-tracer injection; n=6; Mann Whitney U test
E. coli = conditions: cited from earlier work
[1] = rat, in vivo; cited from earlier work
[2] = human, in vivo; cited from earlier work
[3] = in vivo; cited from earlier work

For `OC[C@@H](O)[C@@H](O)[C@H](O)[C@@H]([18F])CO` [^18F-FDS, 2-deoxy-2-[^18F]fluoro-D-sorbitol], the “PET signal outside the site of infection (biodistribution)” value (Enterobacterales; patient with Enterobacter aerogenes cellulitis, MIP) was “Signal also is noted in the heart (blood pool), liver, kidneys, and the urinary bladder”, the “Monitoring of antimicrobial response by repeat imaging” value (Enterobacterales; patients, repeat imaging after antibiotic treatments) was “able to monitor antimicrobial response” and the “SUVmean, areas of pneumonia compared to unaffected lung” value (K. pneumoniae) was “significantly higher”. For the same molecule, the “Detection of therapeutic failures” value (E. coli; MDR, extended-spectrum β-lactamase producing E. coli strains) was “detect therapeutic failures”, the “Distinction of infection from sterile inflammation” value (E. coli; mouse models) was “able to distinguish infection from sterile inflammation” and the “Accumulation in the renal cortex” value [1] was “rapid accumulation”. For the same molecule, the Renal uptake [1] was “significantly delayed”, the “Accumulation in the renal cortex” value [2] was “rapid ^18F-FDS accumulation in the renal cortex with gradual transition to the parenchyma” and the Route of clearance [3] was “predominantly cleared through the kidneys”.

Source: patent US12459876B2, “One-step kit-based synthesis of 2-deoxy-2-[18F]fluoro-D-sorbitol” (The Johns Hopkins University, priority 2020, dated 2025)
